Results: US20080241215A1, “LOCAL VASCULAR DELIVERY OF PROBUCOL ALONE OR IN COMBINATION WITH SIROLIMUS TO TREAT RESTENOSIS, VULNERABLE PLAQUE, AAA AND STROKE” (priority 2007, published 2008)
pIC50: −log10 of the molar value.

Tests used:
[1] = tested on: human coronary artery smooth muscle cells; assay: Proliferation of cultured human coronary artery smooth muscle cells; assay type: cell-based
Method: The multiple curves represent various concentrations of topotecan ranging from zero to three hundred nanomolar concentrations. […]
Curve 8702 illustrates the percent inhibition for various concentrations. In FIG. 88, the six curves 8802, 8804, 8806, 8808, 8810 and 8812 represent various concentrations of PX867 with various concentrations of sirolimus. […] More specifically, curve 8812 illustrates the percent inhibition for a 240 nM PX-867 concentration. […] This may be compared to curve 8804 which represents a 15 nM PX-867 concentration.

[2] = Porcine drug elution PK studies (in vivo release from stent coating)
[3] = tested on: human coronary artery smooth muscle cell; assay: MTS cytotoxicity assay; assay type: cell-based; conditions: concentrations up to 30,000.00 nanomolar
Description: Typically, a control is utilized to determine baseline toxicity.

cell viability = assay: Cell viability assay; assay type: cell-based
Description: The multiple curves represent various concentrations of topotecan ranging from zero to three hundred nanomolar concentrations.
The multiple curves represent various concentrations of etoposide ranging from zero to eight hundred nanomolar concentrations.

tumor cell lines = tumor cell lines (Woo et al. 2002); cited from earlier work

Nc1nc(Cl)nc2c1ncn2[C@H]1C[C@H](O)[C@@H](CO)O1 [Cladribine, 2-chlorodeoxyadenosine]
inhibition of human coronary artery smooth muscle cell proliferation ([1]; non-synchronized cells, two percent fetal bovine serum): completely inhibits | effect on anti-proliferative rapamycin dose response curves ([1]; non-synchronized cells, two percent fetal bovine serum, cladribine zero to nine hundred nanomolar): potentiate the anti-proliferative activity of rapamycin | in vivo elution relative to rapamycin ([2]; EVA/BMA basecoat with rapamycin and cladribine, 200 μg BMA topcoat, Yorkshire pigs): elutes more rapidly than rapamycin

COC[C@H]1OC(=O)/C(=C\N2CCCC2)C2=C(O)C(=O)C3=C([C@H](OC(C)=O)C[C@]4(C)C(=O)CC[C@@H]34)[C@]21C [PX-867]
inhibition of coronary artery smooth muscle cell proliferation ([1]; PX867 alone at a concentration of about 10^−6): one hundred | combination effect with sirolimus on percent inhibition ([1]; cultured cells, PX-867 15 nM to 240 nM with various sirolimus concentrations): strong synergistic effect

COc1cc2c(cc1O)CC[C@@H]1[C@@H]2CC[C@]2(C)[C@@H](O)CC[C@@H]12 [Panzem®, 2-methoxyestradiol]
anti-proliferative activity ([1]; synchronized cells, two percent fetal bovine serum): extremely effective inhibitor | effect on percent inhibition by rapamycin ([1]; synchronized cells, two percent fetal bovine serum, Panzem zero to 100 micromolar): increases the percent of inhibition of rapamycin alone | cell survival (MTS assay) [3]: do not reduce human coronary artery smooth muscle cell survival

COc1cc([C@@H]2c3cc4c(cc3[C@@H](O[C@@H]3O[C@@H]5CO[C@@H](C)O[C@H]5[C@H](O)[C@H]3O)[C@H]3COC(=O)[C@H]23)OCO4)cc(OC)c1O [etoposide]
effect on anti-proliferative rapamycin dose response curves ([1]; non-synchronized cells, two percent fetal bovine serum, etoposide zero to eight hundred nanomolar): potentiate the anti-proliferative activity of rapamycin | cytotoxicity in cell viability assay (cell viability; concentrations up to ten micromolar): non-cytotoxic

COc1c(C)c2c(c(O)c1C/C=C(\C)CCC(=O)O)C(=O)OC2 [mycophenolic acid]
effect on anti-proliferative rapamycin dose response curve ([1]; non-synchronized cells, two percent fetal bovine serum, mycophenolic acid zero to one thousand nanomolar): potentiates the anti-proliferative activity of rapamycin | in vivo elution relative to rapamycin ([2]; EVA/BMA basecoat with 180 μg rapamycin and 180 μg mycophenolic acid, BMA topcoat 0-200 μg): elutes more completely over a shorter duration than the rapamycin

CO[C@H]1C[C@@H]2CC[C@@H](C)[C@@](O)(O2)C(=O)C(=O)N2CCCC[C@H]2C(=O)O[C@H]([C@H](C)C[C@@H]2CC[C@@H](O)[C@H](OC)C2)CC(=O)[C@H](C)/C=C(\C)[C@@H](O)[C@@H](OC)C(=O)[C@H](C)C[C@H](C)/C=C/C=C/C=C/1C [rapamycin]
drug remaining in the drug coating ([2]; after eight (8) days of implantation, single-layer sirolimus/cilostazol EVA/BMA coating with 100 μg BMA overcoat (FIG. 83)): ~80%

CC[C@@]1(O)C(=O)OCc2c1cc1n(c2=O)Cc2cc3c(CN(C)C)c(O)ccc3nc2-1 [topotecan]
effect on anti-proliferative rapamycin dose response curves ([1]; synchronized cells, two percent fetal bovine serum, topotecan zero to three hundred nanomolar): potentiate the anti-proliferative activity of rapamycin | cytotoxicity in cell viability assay (cell viability; concentrations up to one micromolar): non-cytotoxic

CC(/C=C/C(=O)NO)=C\[C@@H](C)C(=O)c1ccc(N(C)C)cc1 [trichostatin A]
inhibition of human coronary artery smooth muscle cell proliferation ([1]; in vitro cell culture studies): completely inhibit | pIC50 ([1]; in vitro cell culture studies, read-out: anti-proliferative IC50): ~8.22 | anti-proliferative IC50's (tumor cell lines): low nM range
